Source: patent publication US20150374673A1, “Combination Therapy for the Treatment of Nosocomial Pneumonia” (priority 2013, published 2015)
Entries after “also recorded” stand apart in the source; their conditions may differ. Like-named read-outs stand apart in the source and are kept apart here.

Columns and labels:
P. aeruginosa = test: In vivo efficacy, ceftazidime directed ELF fT>MIC regimen, neutropenic lung infection model (ICR mice); parameters: species or system Pseudomonas aeruginosa; conditions: for Change log CFU Mean: 24 h
Method: It has been observed in surveillance studies that the MIC90 for ceftazidime-avibactam against P. aeruginosa is 8 μg/mL (10-12). Given this, there are few isolates with higher MICs and the number that would grow within the murine lung infection model is even less. […] Doses of the previous humanized regimen described above were […] throughout the dosing period and further pharmacokinetic studies were performed. […] Mice were euthanized and serum and BAL samples were collected, as described above, at predetermined times.
For these studies, 9 P. aeruginosa isolates were evaluated against the CAZ regimen in mice that yielded specific ELF fT>MIC. Doses were initiated 2 hours after inoculation of the test organisms ? and all doses were administered as 0.2 mL subcutaneous injections and consisted of three 8 hour dosing intervals (i.e. 24 hours). To serve as control animals, an additional group of mice were administered normal saline at the same volume, route, and frequency as the treatment regimen. The harvesting procedure for all study mice began with euthanization by CO2 exposure followed by cervical dislocation. After sacrifice, lungs were removed and individually homogenized in normal saline. Serial dilutions of the lung homogenate were plated on trypticase soy agar with 5% sheep blood for CFU determination. In addition to the above mentioned treatment and control groups, another group of 6 infected, untreated mice were harvested at the initiation of dosing and served as 0 h controls. Efficacy, designated as the change in bacterial density, was calculated as the change in log10 bacterial CFU obtained for treated mice after 24 h from that of that starting densities observed in 0 h control animals.

K. pneumoniae = test: Checkerboard assay, mean FICI; assay type: cell-based
Method: (§1) All MIC determinations including those performed in the checkerboard assay were done in cation-adjusted Mueller-Hinton broth (purchased from Becton Dickinson, Oxford UK).
(§2) Initial MIC data were determined by microbroth dilution methods as recommended by CLSI (2012b). Checkerboards were made in accordance with the method given by Pillai et. al., ? Antimicrobial Combinations in Antibiotics, LABORATORY MEDICINE (Lorian Ed., 3rd Ed. (2003)) p. 365-440 as per standard microbroth dilution tests but with agents in combination. […] A final avibactam concentration of 4 mg/L was used throughout the study. Antibacterial agents were combined into microtitre plates using the Evolution III liquid handling system.
(§3) Checkerboard plates were inoculated and incubated in accordance with CLSI guidelines (2012b) at 35±2° C. in ambient air for 16-20 h. MICs were recorded the following day as the lowest concentration or combination of concentrations required to inhibit all visible growth. From the MIC data, FICIs were calculated for each checkerboard according to the method of Meletiadis et. al., Defining Fractional Inhibitory Concentration Index Cutoffs for Additive Interactions Based on Self-Drug Additive Combinations, Monte Carlo Simulation Analysis and in vitro-in vivo Correlation Data for Antifungal Drug Combinations Against Aspergillus fumigatus, AAC 54:602-09 (2010).
(§4) FICI=FICA+FICB=(CA/MICA)+(CB/MICB)
(§5) As each checkerboard gives a number of FICI values, an arithmetic mean is calculated from all values to give the mean FICI for two agents combined against one isolate. Mean FICIs were interpreted by the following criteria given by Odds (2003) which are now the accepted criteria by most journals: […]

S. aureus = test: Checkerboard assay, mean FICI; assay type: cell-based
Method: as §1, §2, §3, §4, §5

E. faecalis = test: Checkerboard assay, mean FICI; assay type: cell-based
Method: as §1, §2, §3, §4, §5

Pseudomonas aeruginosa = test: MIC of ceftazidime-resistant P. aeruginosa strains, microdilution according to ISO guidelines; assay type: cell-based
Method: Seven well-characterized ceftazidime-resistant Pseudomonas aeruginosa strains, obtained from a variety of clinically relevant sources, were used in the experiments as shown in Table 1. MICs were taken from an earlier in vitro checkerboard study (Berkhout & Mouton 2013 CAZ-AVI-M1-061) and were determined by microdilution according to the ISO-guidelines (ISO 2006). This method is CLSI compatible.
Seven well-characterized ceftazidime-resistant Pseudomonas aeruginosa strains, obtained from a variety of clinically relevant sources, were used in the experiments as shown in […]. MICs were determined in an earlier in vitro checkerboard study (AstraZeneca study report # CAZ-AVI-M1-061) and were determined by microdilution according to the ISO-guidelines (ISO 2006). This method is CLSI compatible.

Compound: CC(C)(O/N=C(\C(=O)N[C@@H]1C(=O)N2C(C(=O)[O-])=C(C[n+]3ccccc3)CS[C@H]12)c1csc(N)n1)C(=O)O [ceftazidime, (6R,7R)-7-[[(2Z)-2-(2-amino-1,3-thiazol-4-yl)-2-(1-hydroxy-2-methyl-1-oxopropan-2-yl)oxyiminoacetyl]amino]-8-oxo-3-(pyridin-1-ium-1-ylmethyl)-5-thia-1-azabicyclo[4.2.0]oct-2-ene-2-carboxylate pentahydrate]
- activity in neutropenic lung infection model (P. aeruginosa; directed ELF fT>MIC regimen, isolates with MICs of 32 μg/mL): Activity was observed
- activity in neutropenic lung infection model (P. aeruginosa; in vivo): Efficacy was variable; also recorded: little to no activity
- Change log CFU Mean (P. aeruginosa; isolate PSA 968, control 0 h 5.98, 24 h 9.76): 4.45 log CFU
- Change log CFU Mean (P. aeruginosa; isolate PSA 1382, control 0 h 5.91, 24 h 8.64): 6.42 log CFU
- Change log CFU Mean (P. aeruginosa; isolate PSA 1383, control 0 h 5.77, 24 h 7.29): 3.73 log CFU
- Change log CFU Mean (P. aeruginosa; isolate PSA 1384, control 0 h 5.86, 24 h 7.61): 4.4 log CFU
- Change log CFU Mean (P. aeruginosa; isolate PSA 1386, control 0 h 5.79, 24 h 9.67): 5.98 log CFU
- Change log CFU Mean (P. aeruginosa; isolate PSA 1387, control 0 h 6.39, 24 h 9.45): 4.23 log CFU
- Change log CFU Mean (P. aeruginosa; isolate PSA 1388, control 0 h 5.86, 24 h 8.39): 5.54 log CFU
- Change log CFU Mean (P. aeruginosa; isolate PSA 1389, control 0 h 5.68, 24 h 9.67): 6.3 log CFU
- Change log CFU Mean (P. aeruginosa; isolate PSA 1394, control 0 h 5.58, 24 h 7.73): 5.96 log CFU
- Mean FICI (K. pneumoniae; with Col, isolate 10 K. pneumoniae TEM-4): 0.85
- Mean FICI (K. pneumoniae; with Col, isolate 11 K. pneumoniae CTX-M-15): 1.54
- Mean FICI (K. pneumoniae; with Col, isolate 12 K. pneumoniae SHV-12): 1.40
- Mean FICI (K. pneumoniae; with Col, isolate 14 K. pneumoniae KPC-3): 1.05
- Mean FICI (K. pneumoniae; with Lev, isolate 9 K. pneumoniae Basal MICs): 0.96
- Mean FICI (K. pneumoniae; with Lev, isolate 10 K. pneumoniae TEM-4): 1.13
- Mean FICI (K. pneumoniae; with Tig, isolate 11 K. pneumoniae CTX-M-15): 0.94
- Mean FICI (K. pneumoniae; with Tig, isolate 12 K. pneumoniae SHV-12): 0.97
- Mean FICI (K. pneumoniae; with Tig, isolate 13 K. pneumoniae KPC-3): 1.99
- Mean FICI (K. pneumoniae; with Tig, isolate 14 K. pneumoniae KPC-3): 0.74
- Mean FICI (K. pneumoniae; with Tob, isolate 9 K. pneumoniae Basal MICs): 1.55
- Mean FICI (K. pneumoniae; with Tob, isolate 10 K. pneumoniae TEM-4): 0.64
- Mean FICI (K. pneumoniae; with Tob, isolate 11 K. pneumoniae CTX-M-15): 1.05
- Mean FICI (K. pneumoniae; with Tob, isolate 12 K. pneumoniae SHV-12): 1.04
- Mean FICI (K. pneumoniae; with Tob, isolate 13 K. pneumoniae KPC-3): 1.12
- Mean FICI (K. pneumoniae; with Tob, isolate 14 K. pneumoniae KPC-3): 0.91
- Mean FICI (K. pneumoniae; with Tob, isolate 15 K. pneumoniae KPC-2): 1.05
- Mean FICI (S. aureus; with Lev, isolate 22 S. aureus Basal MICs): 0.98
- Mean FICI (S. aureus; with Lev, isolate 23 S. aureus Basal MICs, Penicillinase+): 1.46
- Mean FICI (S. aureus; with Lev, isolate 24 S. aureus Basal MICs, Penicillinase +): 1.21
- Mean FICI (S. aureus; with Lzd, isolate 22 S. aureus Basal MICs): 1.43
- Mean FICI (S. aureus; with Lzd, isolate 23 S. aureus Basal MICs, Penicillinase+): 1.10
- Mean FICI (S. aureus; with Lzd, isolate 24 S. aureus Basal MICs, Penicillinase +): 1.32
- Mean FICI (S. aureus; with Tig, isolate 22 S. aureus Basal MICs): 1.13
- Mean FICI (S. aureus; with Tig, isolate 23 S. aureus Basal MICs, Penicillinase+): 1.27
- Mean FICI (S. aureus; with Tig, isolate 24 S. aureus Basal MICs, Penicillinase +): 1.11
- Mean FICI (S. aureus; with Tob, isolate 22 S. aureus Basal MICs): 1.60
- Mean FICI (S. aureus; with Tob, isolate 23 S. aureus Basal MICs, Penicillinase+): 0.86
- Mean FICI (S. aureus; with Tob, isolate 24 S. aureus Basal MICs, Penicillinase +): 0.84
- Mean FICI (S. aureus; with Van, isolate 22 S. aureus Basal MICs): 1.23
- Mean FICI (S. aureus; with Van, isolate 23 S. aureus Basal MICs, Penicillinase+): 0.99
- Mean FICI (S. aureus; with Van, isolate 24 S. aureus Basal MICs, Penicillinase +): 1.24
- Mean FICI (E. faecalis; with Lev, isolate 25 E. faecalis Basal MICs): 1.15
- Mean FICI (E. faecalis; with Lev, isolate 26 E. faecalis Basal MICs): 1.20
- Mean FICI (E. faecalis; with Lev, isolate 27 E. faecalis Basal MICs): 0.78
- Mean FICI (E. faecalis; with Lzd, isolate 25 E. faecalis Basal MICs): 1.72
- Mean FICI (E. faecalis; with Lzd, isolate 26 E. faecalis Basal MICs): 0.99
- Mean FICI (E. faecalis; with Lzd, isolate 27 E. faecalis Basal MICs): 1.64
- Mean FICI (E. faecalis; with Tig, isolate 25 E. faecalis Basal MICs): 1.19
- Mean FICI (E. faecalis; with Tig, isolate 26 E. faecalis Basal MICs): 0.73
- Mean FICI (E. faecalis; with Tig, isolate 27 E. faecalis Basal MICs): 1.16
- Mean FICI (E. faecalis; with Tob, isolate 25 E. faecalis Basal MICs): 0.84
- Mean FICI (E. faecalis; with Tob, isolate 26 E. faecalis Basal MICs): 0.74
- Mean FICI (E. faecalis; with Tob, isolate 27 E. faecalis Basal MICs): 0.99
- Mean FICI (E. faecalis; with Van, isolate 25 E. faecalis Basal MICs): 1.63
- Mean FICI (E. faecalis; with Van, isolate 26 E. faecalis Basal MICs): 1.18
- Mean FICI (E. faecalis; with Van, isolate 27 E. faecalis Basal MICs): 1.38
- MIC (Pseudomonas aeruginosa; P. aeruginosa isolate no. 1, CAZ-AVI determined at 4 mg/L avibactam): 128 µg/mL
- MIC (Pseudomonas aeruginosa; P. aeruginosa isolate no. 11, CAZ-AVI determined at 4 mg/L avibactam): 128 µg/mL
- MIC (Pseudomonas aeruginosa; Pseudomonas aeruginosa): 128 µg/mL
- MIC (Pseudomonas aeruginosa; Pseudomonas aeruginosa, P. aeruginosa isolate no. 3, CAZ-AVI determined at 4 mg/L avibactam, read-out: MIC): 64 µg/mL
- MIC (Pseudomonas aeruginosa; Pseudomonas aeruginosa, P. aeruginosa isolate no. 7, CAZ-AVI determined at 4 mg/L avibactam, read-out: MIC): 64 µg/mL
- MIC (Pseudomonas aeruginosa; Pseudomonas aeruginosa, P. aeruginosa isolate no. 18, CAZ-AVI determined at 4 mg/L avibactam, read-out: MIC): 32 µg/mL
- MIC (Pseudomonas aeruginosa; Pseudomonas aeruginosa, P. aeruginosa isolate no. 19, CAZ-AVI determined at 4 mg/L avibactam, read-out: MIC): 64 µg/mL
